Structures can show the parent of a compound that is named as a salt.
Tests used:
[1] = system: Intracellular cAMP; experiment: Measurement of intracellular cAMP levels in differentiated L6 cells (alpha screen cAMP kit); type: cell-based; conditions: compound at 10 μM for 15 min vs isoproterenol at 10 μM
Description: (§1) L6-myoblasts were grown in Dulbecco's Modified Eagle's Medium (DMEM) containing 1 g/L glucose supplemented with 10% fetal bovine serum, 2 mM L-Glutamine, 50 U/mL penicillin, […] streptomycin and 10 mM HEPES. Cells were plated at 1×10^5 cells per mL in 24-well plates. After reaching 90% confluence the cells were grown in medium containing 2% FBS for 7 days where upon cells differentiated into myotubes.
Differentiated cells were serum-starved overnight and stimulated with an agonist, final concentration 1×10^−5 M, for 15 min in stimulation buffer (HBSS supplemented with 1% BSA, 5 mM HEPES and 1 mM IBMX, pH 7.4). The medium was aspirated and 100 μL of 95% EtOH was added to each well of the 24-well plate and cells were kept at −20° C. overnight. The EtOH was allowed to evaporate and 500 μL of lysis buffer (1% BSA, 5 mM HEPES and 0.3% Tween-20, pH 7.4) was added to each well. The plate was kept at −80° C. for 30 min and then at −20° C. until the day of detection when the samples were thawed. Intracellular cAMP levels were detected using an alpha screen cAMP kit (6760635D from Perkin Elmer). The activity for each compound is compared to that of isoproterenol.

[2] = system: L6-myotubes; experiment: Glucose uptake (3H-2-deoxyglucose) in differentiated L6-myotubes; type: cell-based; conditions: compound at 10 μM vs isoproterenol at 10 μM
Description: as §1
Differentiated L6-myotubes were serum-starved overnight in medium containing 0.5% fatty-acid free BSA and stimulated with an agonist, with a final concentration of 1×10^−5 M. After 1 h 40 min the cells were washed with warm glucose free medium or PBS twice and another portion of agonist was added to the glucose free medium. After 20 min the cells were exposed to 50 nM ^3H-2-deoxyglucose for another 10 min before washed in ice cold glucose free medium or PBS three times and lysed in 400 μL/well 0.2 M NaOH for 1 h at 60° C. The cell lysate was mixed with 4 mL scintillation buffer (Emulsifier Safe, Perkin Elmer) and the radioactivity was detected in a β-counter (Tri-Carb 4810TR, Perkin Elmer). The activity for each compound is compared to that of isoproterenol.

Structure (SMILES): O[C@H](c1cccc(F)c1)[C@H]1CC[C@@H](C[C@H]2CCCNC2)N1 [Example 5, (R)-(3-Fluorophenyl)((2R,5S)-5-(((R)-piperidin-3-yl)methyl)pyrrolidin-2-yl)methanol dihydrochloride]
- Biological example 2: intracellular cAMP levels, activity compared to that of isoproterenol [1]: − (if it less than 25% it is denoted with −)
- Biological example 1: glucose uptake, activity compared to that of isoproterenol [2]: ++ (if it is between 75 and 50% it is denoted with ++)

Structure (SMILES): CS(=O)(=O)N1CCC(C[C@@H]2CC[C@H]([C@@H](O)c3cccc(F)c3)N2)CC1.Cl [Example 8, (S)-(3-Fluorophenyl)((2R,5S)-5-((1-(methylsulfonyl)piperidin-4-yl)-methyl)pyrrolidin-2-yl)methanol hydrochloride]
- Biological example 2: intracellular cAMP levels, activity compared to that of isoproterenol [1]: − (if it less than 25% it is denoted with −)
- Biological example 1: glucose uptake, activity compared to that of isoproterenol [2]: ++ (if it is between 75 and 50% it is denoted with ++)

Structure (SMILES): CS(=O)(=O)N1CCC[C@H](C[C@@H]2CC[C@H]([C@H](O)c3cccc(F)c3)N2)C1.Cl [Example 12, (R)-(3-Fluorophenyl)((2R,5S)-5-(((R)-1-(methylsulfonyl)piperidin-3-yl)methyl)pyrrolidin-2-yl)methanol hydrochloride]
- Biological example 2: intracellular cAMP levels, activity compared to that of isoproterenol [1]: − (if it less than 25% it is denoted with −)
- Biological example 1: glucose uptake, activity compared to that of isoproterenol [2]: +++ (more than 75% of that of isoproterenol at 10 μM, the activity is denoted with +++)

Structure (SMILES): Cl.O[C@H](c1cccc(F)c1)[C@H]1CC[C@@H](CC2CCOCC2)N1 [Example 16, (R)-(3-Fluorophenyl)((2R,5S)-5-((tetrahydro-2H-pyran-4-yl)methyl)-pyrrolidin-2-yl)methanol hydrochloride]
- Biological example 2: intracellular cAMP levels, activity compared to that of isoproterenol [1]: + (if it is between 50 and 25% it is denoted with +)
- Biological example 1: glucose uptake, activity compared to that of isoproterenol [2]: +++ (more than 75% of that of isoproterenol at 10 μM, the activity is denoted with +++)

Structure (SMILES): O[C@H](c1cccc(F)c1)[C@H]1CC[C@@H](CC2CCNCC2)N1 [Example 1, (R)-(3-Fluorophenyl)((2R,5S)-5-(piperidin-4-ylmethyl)pyrrolidin-2-yl)-methanol dihydrochloride]
- Biological example 2: intracellular cAMP levels, activity compared to that of isoproterenol [1]: − (if it less than 25% it is denoted with −)
- Biological example 1: glucose uptake, activity compared to that of isoproterenol [2]: ++ (if it is between 75 and 50% it is denoted with ++)

Structure (SMILES): CS(=O)(=O)N1CCC(C[C@@H]2CC[C@H]([C@H](O)c3cccc(F)c3)N2)CC1.Cl [Example 7, (R)-(3-Fluorophenyl)((2R,5S)-5-((1-(methylsulfonyl)piperidin-4-yl)-methyl)pyrrolidin-2-yl)methanol hydrochloride]
- Biological example 2: intracellular cAMP levels, activity compared to that of isoproterenol [1]: − (if it less than 25% it is denoted with −)
- Biological example 1: glucose uptake, activity compared to that of isoproterenol [2]: +++ (more than 75% of that of isoproterenol at 10 μM, the activity is denoted with +++)

Structure (SMILES): O[C@@H](c1cccc(F)c1)[C@H]1CC[C@@H](C[C@@H]2CCCNC2)N1 [Example 4, (S)-(3-Fluorophenyl)((2R,5S)-5-(((S)-piperidin-3-yl)methyl)pyrrolidin-2-yl)methanol dihydrochloride]
- Biological example 2: intracellular cAMP levels, activity compared to that of isoproterenol [1]: − (if it less than 25% it is denoted with −)
- Biological example 1: glucose uptake, activity compared to that of isoproterenol [2]: ++ (if it is between 75 and 50% it is denoted with ++)

Structure (SMILES): OC(c1cccc(F)c1)[C@H]1CC[C@@H](CC2CCCNC2)N1 (stereo in doubt) [Example 3, (S)-(3-Fluorophenyl)((2R,5S)-5-(((R)-piperidin-3-yl)methyl)pyrrolidin-2-yl)methanol dihydrochloride]
- Biological example 2: intracellular cAMP levels, activity compared to that of isoproterenol [1]: − (if it less than 25% it is denoted with −)
- Biological example 1: glucose uptake, activity compared to that of isoproterenol [2]: + (if it is between 50 and 25% it is denoted with +)

Structure (SMILES): CS(=O)(=O)N1CCC[C@@H](C[C@@H]2CC[C@H]([C@@H](O)c3cccc(F)c3)N2)C1.Cl [Example 13, (S)-(3-Fluorophenyl)((2R,5S)-5-(((S)-1-(methylsulfonyl)piperidin-3-yl)methyl)pyrrolidin-2-yl)methanol hydrochloride]
- Biological example 2: intracellular cAMP levels, activity compared to that of isoproterenol [1]: − (if it less than 25% it is denoted with −)
- Biological example 1: glucose uptake, activity compared to that of isoproterenol [2]: ++ (if it is between 75 and 50% it is denoted with ++)

Structure (SMILES): CC(=O)N1CCC(C[C@@H]2CC[C@H]([C@H](O)c3cccc(F)c3)N2)CC1.Cl [Example 9, 1-(4-(((2S,5R)-5-((R)-(3-Fluorophenyl)(hydroxy)methyl)pyrrolidin-2-yl)methyl)piperidin-1-yl)ethan-1-one hydrochloride]
- Biological example 2: intracellular cAMP levels, activity compared to that of isoproterenol [1]: − (if it less than 25% it is denoted with −)
- Biological example 1: glucose uptake, activity compared to that of isoproterenol [2]: +++ (more than 75% of that of isoproterenol at 10 μM, the activity is denoted with +++)

Structure (SMILES): OC(c1cccc(F)c1)[C@H]1CC[C@@H](CC2CCCNC2)N1 (stereo in doubt) [Example 6, (R)-(3-Fluorophenyl)((2R,5S)-5-(((S)-piperidin-3-yl)methyl)pyrrolidin-2-yl)methanol dihydrochloride]
- Biological example 2: intracellular cAMP levels, activity compared to that of isoproterenol [1]: − (if it less than 25% it is denoted with −)
- Biological example 1: glucose uptake, activity compared to that of isoproterenol [2]: +++ (more than 75% of that of isoproterenol at 10 μM, the activity is denoted with +++)

Structure (SMILES): CC(=O)N1CCC(C[C@@H]2CC[C@H]([C@@H](O)c3cccc(F)c3)N2)CC1.Cl [Example 10, 1-(4-(((2S,5R)-5-((S)-(3-Fluorophenyl)(hydroxy)methyl)pyrrolidin-2-yl)methyl)piperidin-1-yl)ethan-1-one hydrochloride]
- Biological example 2: intracellular cAMP levels, activity compared to that of isoproterenol [1]: − (if it less than 25% it is denoted with −)
- Biological example 1: glucose uptake, activity compared to that of isoproterenol [2]: − (if it less than 25% it is denoted with −)

Structure (SMILES): CS(=O)(=O)N1CCC[C@H](C[C@@H]2CC[C@H]([C@@H](O)c3cccc(F)c3)N2)C1.Cl [Example 11, (S)-(3-Fluorophenyl)((2R,5S)-5-(((R)-1-(methylsulfonyl)piperidin-3-yl)methyl)pyrrolidin-2-yl)methanol hydrochloride]
- Biological example 2: intracellular cAMP levels, activity compared to that of isoproterenol [1]: − (if it less than 25% it is denoted with −)
- Biological example 1: glucose uptake, activity compared to that of isoproterenol [2]: + (if it is between 50 and 25% it is denoted with +)

Structure (SMILES): CS(=O)(=O)N1CCC[C@@H](C[C@@H]2CC[C@H]([C@H](O)c3cccc(F)c3)N2)C1.Cl [Example 14, (R)-(3-Fluorophenyl)((2R,5S)-5-(((S)-1-(methylsulfonyl)piperidin-3-yl)methyl)pyrrolidin-2-yl)methanol hydrochloride]
- Biological example 2: intracellular cAMP levels, activity compared to that of isoproterenol [1]: − (if it less than 25% it is denoted with −)
- Biological example 1: glucose uptake, activity compared to that of isoproterenol [2]: +++ (more than 75% of that of isoproterenol at 10 μM, the activity is denoted with +++)

Structure (SMILES): Cl.O[C@@H](c1cccc(F)c1)[C@H]1CC[C@@H](CC2CCOCC2)N1 [Example 15, (S)-(3-Fluorophenyl)((2R,5S)-5-((tetrahydro-2H-pyran-4-yl)methyl)-pyrrolidin-2-yl)methanol hydrochloride]
- Biological example 2: intracellular cAMP levels, activity compared to that of isoproterenol [1]: − (if it less than 25% it is denoted with −)
- Biological example 1: glucose uptake, activity compared to that of isoproterenol [2]: ++ (if it is between 75 and 50% it is denoted with ++)

Structure (SMILES): O[C@@H](c1cccc(F)c1)[C@H]1CC[C@@H](CC2CCNCC2)N1 [Example 2, (S)-(3-Fluorophenyl)((2R,5S)-5-(piperidin-4-ylmethyl)pyrrolidin-2-yl)-methanol dihydrochloride]
- Biological example 2: intracellular cAMP levels, activity compared to that of isoproterenol [1]: − (if it less than 25% it is denoted with −)
- Biological example 1: glucose uptake, activity compared to that of isoproterenol [2]: + (if it is between 50 and 25% it is denoted with +)

From patent US20260274818A1, “HETEROCYCLOALKYL BETA-HYDROXY ALKYL AMINES FOR USE IN THE TREATMENT OF HYPERGLYCAEMIA AND DISORDERS CHARACTERISED BY HYPERGLYCAEMIA” (ATROGI AB, priority 2023, published 2026)
